Where “and” joins values, the source holds several entries; their conditions need not be identical. Equal values may be shown once. Entries after “also recorded” stand apart in the source; their conditions may differ.
What was measured:
[1] = characteristics of acetohydroxamic acid (Table 1), pKa; format: physicochemical
Excerpt: These aliphatic hydroxamic acids including formohydroxamic acid, acetohydroxamic acid, propionohydroxamic acid and isobutyhydroxamic acid. […] This source of hydroxamate groups has the following characteristics: […]

Proteus species [2] = assay: static study in synthetic urine: inhibition of alkalinization by Proteus species; format: cell-based; settings: acetohydroxamic acid 1.9 mg/ml
Protocol: (§1) Static studies were conducted to illustrate the synergistic effect achieved in accordance with the present invention through the combined employment of a source of methenamine, i.e., methenamine itself and a source of hydroxamate groups, i.e., acetohydroxamic acid. In order to achieve reproducibility of results with large quantities or urine required for these studies a synthetic urine was formulated based on the proportion of solutes found in the urine from normal human subjects. The composition of such urine was as follows: Brain heart infusion (BHI) broth in a final concentration of 5% was added to support bacterial growth. The pH of the synthetic urine prior to addition of the BHI broth was 5.7 - 5.8. […] In these tests the methenamine was utilized in a final concentration of 0.9 milligrams per milliliter. […] Dally and […], 1969, Analytical BioChem 28:13-21. […] These concentrations which were selected in the static studies were concentrations which would be achievable in the urine of patients with normal renal function. […] At each pH level a set of four tubes was obtained, with these tubes being as follows: 1. Urine alone (control); 2. Urine plus methenamine; 3. Urine plus acetohydroxamic acid; and 4. Urine plus acetohyroxamic acid plus methenamine. […] At varying time intervals aliquots were removed for pH determination and bacterial enumeration by serial tenfold dilution.

Proteus rettgeri [3] = assay: static study in synthetic urine: viable bacteria, Proteus rettgeri (FIG. 2); format: cell-based; settings: acetohydroxamic acid 1.9 mg/ml
Protocol: as §1

Proteus species [4] = assay: static study in synthetic urine: anti-bacterial effect, all Proteus species studied; format: cell-based; settings: general statement
Protocol: as §1

Proteus rettgeri [5] = assay: dynamic study resembling a Proteus infected human bladder (FIG. 3); format: cell-based; settings: acetohydroxamic acid 1.9 mg/ml
Protocol: Dynamic studies were conducted to further illustrate the synergistic effect associated with the combined presence of a source of methenamine, i.e., methenamine itself and a source of hyroxamate groups, i.e., acetohydroxamic acid in the urine. […] Utilizing a multicassetts roller pump, urine of a pH of 5.85 was pumped at 40 milliliters per hour from three reservoir flasks into three reaction chambers. […] An aqueous solution of 18 milligrams per milliliter of methenamine at a pH of 7.5 was pumped into reaction chambers 1 and 3 at a rate of two milliliters per hour yielding a final concentration of methenamine of 0.9 milligrams per milliliter. […] The reaction chambers contained gently rotating magnetic stirrers and were kept in a warm bath at 37° C. […] At 4 - 6 hour intervals the volume of urine in each reaction chamber was recorded, the pH of each reaction chamber was determined and serial dilutions were carried out for bacterial enumeration.

Proteus = assay: static-dynamic system, bacteriostasis against Proteus, statements over all experiments; format: cell-based, Proteus mirabilis, Proteus rettgeri, Proteus morgani; settings: acetohydroxamic acid ≤0.9 mg/ml
Protocol: In this example in vitro investigations were carried out using a static-dynamic system delineating (1) bacteriostatic dose-response relation for methenamine against Proteus, and (2) a synergistic bacteriostatic dose-response relation for methenamine and acetohydroxamic acid against Proteus. […] The tubes were placed in a bacteriological incubator at 37° C. […] Incubation of the tubes at 37° and sequential dilutions were made a 6 hour intervals for 24 hours. The variables for each of eight experiments are detailed in Table 2. Bacterial colony forming units (cfu) and urine pH were determined at the beginning and at the completion of each six hour incubation. The cfu units present after six hours of incubation are graphed in FIGS. 4-15. […] When bacteriostatis was absent, the number of cfu after six hours of incubation was equal to or greater than the number of cfu at the beginning of incubation. A strain of Proteus mirabilis isolated from the urine of patients with urinary tract infections was used in most experiments. Overnight growth in brain heart infusion (BHI) broth regularly produced 10^9 cfu/ml. The overnight culture was centrifuged at 3000 rpm for 20 minutes. The supernatant was discharged, and the bacterial pellet was resuspended in an equal volume of synthetic urine. […]

Proteus mirabilis [6] = assay: dynamic model of the urinary tract (FIGS. 16, 17); format: cell-based
Protocol: This example was carried out using a dynamic model as described in connection with Example 2. […] Proteus species, isolated from the urine of patients with known urinary infection, were maintained in the laboratory by monthly transfer on agar […]. These organisms grew to about 10^9 colony forming units (cfu) per ml after overnight growth at 37° C in brain heart infusion broth (BHI). […] The pH of this synthetic urine was 5.85. […] In this dynamic system urine with or without acetohydroxamic acid was pumped at 48 ml/hr from reservoirs via an auto-analyzer pump into reaction chambers which were incubated in a shaking water bath at 37° C. […] Every six hours the reaction chambers were emptied except for a 5 ml residual, and the sequence was repeated. In these experiments the pH, ammonia concentration and cfu per ml urine were determined for each reaction chamber at the end of each six hour period.

Proteus mirabilis [7] = assay: Proteus mirabilis infected bladder stones (zinc disc) in rats; format: in vivo, male Sprague-Dawley rats
Protocol: This example was carried out to illustrate the effectiveness of administering a source of hydroxamate groups, e.g., acetohydroxamic acid in eliminating the pathogenicity of urinary tract infections and in dissolving or reducing infected bladder stones.
The formation of infected bladder stones was induced in 250 gram male Sprague-Dawley rats, according to the method described in "Experimental Urolithiasis VIII -- Furadantin in Treatment of Experimental Proteus Infection with Stone Formation" C. W. Vermuelen and R. Goetz, Journal of Urology, 72:99, 1954. Rats wer anesthetized with ether and the abdominal wall swabbed with 70% ethyl alcohol. The urinary bladder was entered through a small suprapubic incision. Zinc discs, 6 mm. in diameter, were dipped into a saline suspension containing 10^7 Proteus mirabilis per ml (infective discs) and immediately inserted into the bladder. Discs handled in this fashion carried 10^5 ± 15% organisms. The bladder was closed with a single purse-string suture of 3-0 chromic catgut, and the skin was approximated with metallic clips. All animals were fasted overnight following the surgical procedure and resumed their usual diet the following day.
Rats were housed individually in stainless steel metabolic cages and were fed Purina Rat Chow pellets ad lib. Fluid was given in stainless steel cups as a solution of 5-20% sucrose in water.

bacterial urease = settings: cited from earlier work
[8] = individual animal, average of day individual values, listed as AHA
[9] = individual animal, listed as AHA

## CC(=O)NO [acetohydroxamic acid]
[1]
  pKa: 9.32
Proteus species [2]; synthetic urine, 37°
  inhibition of alkalinization: inhibited alkalinizaton for the first eight hours
Proteus species [2]; bacterial proliferation leading to alkaline pH
  time within which effect as urease inhibitor was overcome: ≤ 24 h
Proteus rettgeri [3]
  bacteriostatic effect: slight bacteriostatic effect
Proteus rettgeri [3]; within eight to eighteen hours
  number of bacteria: ~10^8 per milliliter
Proteus species [4]
  anti-bacterial effect with regard to bacteria of the species Proteus: slight anti-bacterial effect
Proteus rettgeri [5]
  alkalinization: alkalinization of Proteus was inhibited
  bacteriostatic effect: minor bacteriostatic effect
Proteus
  bacteriostatic effect: no bacteriostatic effect
Proteus mirabilis [6]; acetohydroxamic acid 1 mg/ml without methenamine
  effect on pH: maintained the pH at normal levels
Proteus mirabilis [6]; acetohydroxamic acid, higher concentration 1.0 mg/ml (FIG. 16)
  bacterial growth: slightly inhibited bacterial growth
Proteus mirabilis [7]; acetohydroxamic acid treated animals
  urine pH (group): remained in the normal range; also recorded: in the physiological range
Proteus mirabilis [7]; autopsy
  gross evidence of pyelonephritis or renal stone formation (group): none had gross evidence of pyelonephritis or renal stone formation
  kidney histology (group): nearly all had normal kidneys histologically
Proteus mirabilis [7]; individual animal
  Autopsy Gross Kidney: Normal
  Autopsy Urine bacteria/ml: > 10^5 bacteria/ml
  survival of animal: Expired
Proteus mirabilis [7]; [8]
  Urine pH: 7.4 and 6.6 and 6.7 and 7.0 and 6.3 and 6.5 and 6.4
Proteus mirabilis [7]; [9]
  Autopsy Microscopic Kidney: Pyelonephritis; also recorded: Normal
  Autopsy Stone Composition: Struvite; also recorded: Apatite
  Autopsy Stone wt.: 12 mg and 4 mg and 21 mg and 11 mg and 1 mg and 19 mg and 3 mg and 7 mg
Proteus mirabilis [7]; infected rats
  tissue damage and virulence of the disease: tissue damage and virulence of the disease decreased
Proteus mirabilis [7]; rat, in vivo
  P, difference in mean urine pH between control and treated groups: < 0.01
  P, difference in stone formation between control and treated groups: < 0.01
Proteus mirabilis [7]; seventh day
  Proteus mirabilis in urine at autopsy (group): greater than 10^5 per ml
  bladder stone formation (group): minimal; also recorded: significantly less bladder stone formation than the control rats
150 mg offered daily orally, average 100 mg ingested
  concentration of acetohydroxamic acid in urine, mean: 2880 µg/mL
[8]
  Urine Acetohy.: .3 mg/mL and 1.5 mg/mL and 2.5 mg/mL and 1.3 mg/mL and .9 mg/mL and 1.6 mg/mL and .5 mg/mL
Bacterial urease
  urease inhibiting effect: appear to possess the greatest urease inhibiting effect

— patent publication US4024256A, “Method and composition for treating urinary tract infections” (priority 1975, dated 1977)
